# Measurements: patent publication US12195804B2, “Treatment of squamous cell carcinoma” (Board of Regents, The University of Texas System, priority 2018, dated 2025)
# Assays:
# Assay type in all cases: cell-based, human
# [1] = tested on: HNSCC cell lines; test: Apoptosis assays (Annexin V/propidium iodide, BrdU TUNEL, cleaved PARP/caspase 3); conditions: 50 nM
# Experimental: (§1) FIGS. 7A-7D: PI3K/mTOR signaling inhibition induces cell death in NOTCH1^MUT but not NOTCH1^WT head and neck squamous cell carcinoma (HNSCC) cell lines in vitro. FIG. 7A. Annexin V/propidium iodide or BrDU-terminal deoxynucleotidyl transferase (TdT) dUTP nick-end labeling (TUNEL) assays were used to measure apoptosis in HNSCC cells with the indicated NOTCH1 and PIK3CA mutations, which were treated with 50 nM GSK2126458 (GSK212) for 24 or 48 hours, respectively. Values are the means±standard deviations of three independent experiments. *p<0.05, unpaired two-tailed Student t-test. FIG. 7B. Western blotting of cleaved PARP (Cl-PARP) and cleaved caspase 3 (Cl-Caspase 3) levels in mutant and wild type cells after GSK212 treatment for 48 hours. FIG. 7C. NOTCH1^MUT and NOTCH1^WT HNSCC cells were plated sparsely and treated with GSK212 at the indicated concentrations for 48 hours. At 14-21 days after treatment, the cells were fixed and stained, images were captured using the GelCount Tumour Colony Counter, and colony numbers and the colorimetric intensity of the colonies were determined by measuring the optical density (OD) at 570 nm. Values are the means±standard deviations of three independent experiments. *p<0.001, unpaired two-tailed Student t-test. FIG. 7D. Three NOTCH1^WT lines (black text and bars) and three NOTCH1^MUT lines (red text and bars) were treated with increasing concentrations of GSK212 for 4 hours, and levels of PI3K/mTOR pathway proteins were measured by Western blot analysis.
# Western blot analysis. Western blot analysis was performed as described previously (Ferrarotto et al., 2016). In brief, cells were lysed with ice-cold lysis buffer, and the lysates were centrifuged at 20,000×g for 10 minutes at 4° C. Cell samples containing equal amounts of protein were resolved using sodium dodecyl sulfate-polyacrylamide gel electrophoresis, transferred to nitrocellulose membranes, and immunoblotted with different primary antibodies. Protein expression was detected using a horseradish peroxidase-conjugated secondary antibody (Bio-Rad, Hercules, CA) and electrochemiluminescence reagent (Amersham Biosciences, Pittsburg, PA).
# Apoptosis and cell cycle assays. To measure apoptosis, we performed terminal deoxynucleotidyl transferase dUTP nick end labeling (TUNEL) staining with an APO-BRDU Kit (BD Biosciences, San Jose, CA) and Annexin V/propidium iodide staining with an FITC Annexin V Apoptosis Detection Kit (BD Pharmingen, San Diego, CA) as described previously (Chandarlapaty et al., 2011). […] Data were acquired with a three-laser, 10-color Gallios flow cytometer (Beckman Coulter, Brea, CA) and analyzed using Kaluza software (Beckman Coulter, Brea, CA). […]
# [2] = tested on: PI3K/mTOR pathway proteins; test: Western blot of PI3K/mTOR pathway proteins; conditions: 4 hours, NOTCH1WT and NOTCH1MUT lines
# Experimental: as §1, with “Western blotting of cleaved PARP (Cl-PARP) and cleaved caspase 3 (Cl-Caspase 3) levels in mutant and wild type cells after GSK212 treatment for 48 hours. FIG. 7C. NOTCH1^MUT and NOTCH1^WT HNSCC cells were plated sparsely and treated with GSK212 at the indicated concentrations for 48 hours.” left out, “Values are the means±standard deviations of three independent experiments. *p<0.001, unpaired two-tailed Student t-test. FIG. 7D.” left out
# Western blot analysis. […] Protein expression was detected using a horseradish peroxidase-conjugated secondary antibody (Bio-Rad, Hercules, CA) and electrochemiluminescence reagent (Amersham Biosciences, Pittsburg, PA).
# [3] = tested on: PJ34 cells; test: CellTiter-Glo viability, PJ34 parental and NOTCH1 KO; conditions: 72 hours
# Experimental: FIGS. 9A-9D: NOTCH1 knockout (KO) sensitizes two NOTCH1^WT head and neck squamous cell carcinoma (HNSCC) cell lines to PI3K/mTOR pathway inhibition in vitro. Two NOTCH1^WT HNSCC cell lines (PJ34 and UMSCC49 [UM49]), parental cell lines, and NOTCH1 KO cell lines were treated with PI3K/mTOR pathway inhibitors. FIG. 9A. The CellTiter-Glo assay was used to assess the viability of cells treated for 72 hours with the indicated concentrations of GSK2126458 (GSK212). FIG. 9B. Western blot analysis of apoptosis markers, NOTCH1, and NOTCH intracellular domain (NICD) was performed after treatment with the indicated concentrations of GSK212 for 48 hours. FIG. 9C. Apoptosis in cells treated with 50 nM GSK212 or 200 nM BEZ235 for 48 hours was measured using an Annexin V/propidium iodide assay. Values are the means±standard deviations of three independent experiments. *p<0.05, unpaired two-tailed Student t-test. FIG. 9D. […] Colony areas as percentages of the control were measured using ImageJ. […]
# Cell viability assay. […] Inhibitory concentration (ICs) and area under the curve (AUC) values were calculated using the drexplorer R package with a best-fit dose-response model (Zumsteg et al., 2016). The combination indices were calculated using the Chou-Talalay method (Cal et al., 2017) in CalcuSyn (Biosoft, Cambridge, UK). […]
smiles,measurement,setting,value
COc1ncc(-c2ccc3nccc(-c4ccnnc4)c3c2)cc1NS(=O)(=O)c1ccc(F)cc1F [GSK2126458],apoptosis in PDK1-overexpressing versus parental lines,"[1]; 24 or 48 hours, NOTCH1MUT cells overexpressing PDK1",decreased apoptosis
same,apoptosis,"[1]; 24 or 48 hours, NOTCH1MUT lines",induced significant apoptosis
same,apoptosis,[1]; two NOTCH1WT/PIK3CAWT and three NOTCH1WT/PIK3CAMUT lines,no apoptosis was detected
same,target inhibition (PI3K/mTOR pathway proteins),[2],dose-dependent target inhibition
same,IC70,[3]; PJ34 NOTCH1 KO,24 nM
same,IC70,[3]; PJ34 parental,100 nM
